Assay results published in PMC2075610 (Biochimica et Biophysica Acta. Molecular Basis of Disease, 2006).
Residues, ends and D or L forms follow the SMILES beside them. *: point of attachment. For = O=C*

What was measured:
R190/N192 FPR [1] = target: T1, R190/N192 FPR (Homo sapiens, UniProt P21462); assay: biochemical; format: binding
W190/N192 FPR [2] = target: T2, W190/N192 FPR (Homo sapiens, UniProt P21462, R190W); assay: biochemical; format: binding; conditions: for Ki: Ki (nM ± SEM) for binding of peptides to W190/N192 FPR
R190/K192 FPR [3] = target: T3, R190/K192 FPR (Homo sapiens, UniProt P21462, N192K); assay: biochemical; format: binding
W190/N192 FPR [4] = target: T2, W190/N192 FPR; assay: biochemical; format: biochemical
R190/N192 FPR [5] = target: T1, R190/N192 FPR; assay: biochemical; format: biochemical
R190/K192 FPR [6] = target: T3, R190/K192 FPR; assay: biochemical; format: biochemical
MMWLL = assay: flow
reverse 229E peptide = assay: flow

T1 sequence (P21462 whole entry, looked up): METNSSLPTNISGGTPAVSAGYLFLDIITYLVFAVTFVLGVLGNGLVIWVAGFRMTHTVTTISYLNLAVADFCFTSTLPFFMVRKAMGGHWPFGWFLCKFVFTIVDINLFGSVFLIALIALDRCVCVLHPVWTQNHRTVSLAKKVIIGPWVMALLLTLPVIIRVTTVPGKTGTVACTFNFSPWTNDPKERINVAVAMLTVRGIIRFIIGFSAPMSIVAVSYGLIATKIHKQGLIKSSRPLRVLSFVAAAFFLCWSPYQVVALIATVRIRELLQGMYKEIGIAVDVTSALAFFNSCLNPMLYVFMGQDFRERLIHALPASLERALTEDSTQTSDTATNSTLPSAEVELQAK

Molecule | Ki (R190/N192 FPR [1]) | Ki (W190/N192 FPR [2]) | Ki (R190/K192 FPR [3]) | further results
CC(C)C[C@H](NC(=O)[C@@H](N)CCCCN)C(=O)N[C@@H](CC(N)=O)C(=O)N[C@@H](CO)C(=O)N[C@@H](Cc1c[nH]c2ccccc12)C(=O)N[C@@H](CC(=O)O)C(=O)N[C@H](C(=O)N[C@@H](Cc1ccccc1)C(=O)NCC(=O)N[C@@H](CC(N)=O)C(=O)N[C@@H](Cc1c[nH]c2ccccc12)C(=O)N[C@@H](Cc1ccccc1)C(=O)O)C(C)C | 15000 nM | 4700 ± 290 nM | 9500 nM | –
CSCC[C@H](NC=O)C(=O)N[C@@H](Cc1ccc(O)cc1)C(=O)N[C@H](C(=O)N[C@@H](CCCCN)C(=O)N[C@@H](Cc1c[nH]c2ccccc12)C(=O)N1CCC[C@H]1C(=O)N[C@@H](Cc1c[nH]c2ccccc12)C(=O)N[C@@H](Cc1ccc(O)cc1)C(=O)N[C@H](C(=O)N[C@@H](Cc1c[nH]c2ccccc12)C(=O)N[C@@H](CC(C)C)C(=O)O)C(C)C)C(C)C (For-MYVKWPWYVWL-OH) | 134 ± 9 nM | 133 ± 8 nM | 134 ± 12 nM | stimulation of GTPγS binding (W190/N192 FPR [4]): stimulated GTPγS binding; stimulation of GTPγS binding (R190/N192 FPR [5]): stimulated GTPγS binding; stimulation of GTPγS binding (R190/K192 FPR [6]): stimulated GTPγS binding
CC(C)C[C@H](NC(=O)[C@H](CO)NC(=O)[C@H](C)NC(=O)[C@H](Cc1c[nH]c2ccccc12)NC(=O)[C@H](CCCCN)NC(=O)[C@H](CC(=O)O)NC(=O)[C@H](CC(C)C)NC(=O)[C@@H](N)CCC(=O)O)C(=O)N[C@@H](Cc1c[nH]c2ccccc12)C(=O)N[C@@H](CC(N)=O)C(=O)N[C@@H](Cc1c[nH]c2ccccc12)C(=O)N[C@@H](Cc1ccccc1)C(=O)O (H-ELDKWASLWNWF-OH) | 1200 ± 100 nM | 1050 ± 100 nM | 940 ± 150 nM | –
CSCC[C@H](N)C(=O)N[C@@H](Cc1ccc(O)cc1)C(=O)N[C@H](C(=O)N[C@@H](CCCCN)C(=O)N[C@@H](Cc1c[nH]c2ccccc12)C(=O)N1CCC[C@H]1C(=O)N[C@@H](Cc1c[nH]c2ccccc12)C(=O)N[C@@H](Cc1ccc(O)cc1)C(=O)N[C@H](C(=O)N[C@@H](Cc1c[nH]c2ccccc12)C(=O)N[C@@H](CC(C)C)C(=O)O)C(C)C)C(C)C (H-MYVKWPWYVWL-OH) | 783 ± 50 nM | 263 ± 9 nM | 837 ± 32 nM | fold enhancement of affinity on formylation (R190/N192 FPR [1]): 6 fold; inhibition of 300 nM formyl-MYVKWPWYVWL stimulation of GTPγS binding (W190/N192 FPR [4]): 60%; stimulation of GTPγS binding (W190/N192 FPR [4]): neither ETYIKWPWWVWL nor MYVKWPWYVWL had any effect; inhibition of 300 nM formyl-MYVKWPWYVWL stimulation of GTPγS binding (R190/N192 FPR [5]): did not have a significant effect; stimulation of GTPγS binding (R190/N192 FPR [5]): neither ETYIKWPWWVWL nor MYVKWPWYVWL had any effect; inhibition of 300 nM formyl-MYVKWPWYVWL stimulation of GTPγS binding (R190/K192 FPR [6]): did not have a significant effect; stimulation of GTPγS binding (R190/K192 FPR [6]): neither ETYIKWPWWVWL nor MYVKWPWYVWL had any effect; fold enhancement of affinity on formylation (W190/N192 FPR [2]): 2 fold; fold higher affinity for W190/N192 than for R190/N192 or R190/K192 (W190/N192 FPR [2]): 3 fold; fold enhancement of affinity on formylation (R190/K192 FPR [3]): 6 fold
CC[C@H](C)[C@H](NC(=O)[C@H](CC(N)=O)NC(=O)[C@H](CC(=O)O)NC(=O)[C@@H](NC(=O)[C@H](CC(C)C)NC(=O)[C@@H](NC(=O)[C@H](CCC(N)=O)NC(=O)[C@H](CC(C)C)NC(=O)[C@H](CCCCN)NC(=O)[C@H](CCC(N)=O)NC(=O)[C@@H](N)C(C)C)[C@@H](C)O)[C@@H](C)CC)C(=O)N[C@@H](CC(N)=O)C(=O)N[C@@H](CO)C(=O)N[C@H](C(=O)N[C@@H](CC(C)C)C(=O)N[C@H](C(=O)N[C@@H](CC(=O)O)C(=O)N[C@@H](CC(C)C)C(=O)N[C@@H](CCCCN)C(=O)N[C@@H](Cc1c[nH]c2ccccc12)C(=O)N[C@@H](CC(C)C)C(=O)N[C@@H](CC(N)=O)C(=O)N[C@@H](CCCNC(=N)N)C(=O)N[C@H](C(=O)N[C@@H](CCC(=O)O)C(=O)N[C@H](C(=O)N[C@@H](Cc1ccc(O)cc1)C(=O)N[C@H](C(=O)N[C@@H](CCCCN)C(=O)N[C@@H](Cc1c[nH]c2ccccc12)C(=O)N1CCC[C@H]1C(=O)N[C@@H](Cc1c[nH]c2ccccc12)C(=O)N[C@@H](Cc1c[nH]c2ccccc12)C(=O)N[C@H](C(=O)N[C@@H](Cc1c[nH]c2ccccc12)C(=O)N[C@@H](CC(C)C)C(=O)O)C(C)C)[C@@H](C)CC)[C@@H](C)O)C(C)C)C(C)C)[C@@H](C)O [Coronavirus 229E 36 mer] | 10000 nM | 1300 ± 60 nM | 6800 nM | –
CC[C@H](C)[C@H](NC(=O)[C@H](C)NC(=O)[C@H](CCC(=O)O)NC(=O)[C@H](CCC(N)=O)NC(=O)[C@H](CC(C)C)NC(=O)[C@H](CCCNC(=N)N)NC(=O)[C@H](CC(N)=O)NC(=O)[C@@H](N)CCSC)C(=O)N[C@@H](CCCCN)C(=O)N[C@H](C(=O)N[C@@H](CC(C)C)C(=O)N[C@@H](CC(N)=O)C(=O)N[C@@H](CCC(N)=O)C(=O)N[C@@H](CO)C(=O)N[C@@H](Cc1ccc(O)cc1)C(=O)N[C@H](C(=O)N[C@@H](CC(N)=O)C(=O)N[C@@H](CC(C)C)C(=O)N[C@@H](CCCCN)C(=O)N[C@@H](CC(=O)O)C(=O)N[C@H](C(=O)NCC(=O)N[C@H](C(=O)N[C@@H](Cc1ccc(O)cc1)C(=O)N[C@@H](CCC(=O)O)C(=O)N[C@@H](Cc1ccc(O)cc1)C(=O)N[C@@H](Cc1ccc(O)cc1)C(=O)N[C@H](C(=O)N[C@@H](CCCCN)C(=O)N[C@@H](Cc1c[nH]c2ccccc12)C(=O)N1CCC[C@H]1C(=O)N[C@@H](Cc1c[nH]c2ccccc12)C(=O)N[C@@H](Cc1ccc(O)cc1)C(=O)N[C@H](C(=O)N[C@@H](Cc1c[nH]c2ccccc12)C(=O)N[C@@H](CC(C)C)C(=O)O)C(C)C)C(C)C)[C@@H](C)O)[C@@H](C)CC)[C@@H](C)CC)C(C)C [Coronavirus OC43 36mer] | 850 ± 80 nM | 460 ± 50 nM | 740 ± 80 nM | –
CC[C@H](C)[C@H](NC(=O)[C@H](Cc1ccc(O)cc1)NC(=O)[C@@H](NC(=O)[C@@H](N)CCC(=O)O)[C@@H](C)O)C(=O)N[C@@H](CCCCN)C(=O)N[C@@H](Cc1c[nH]c2ccccc12)C(=O)N1CCC[C@H]1C(=O)O [ETYIKWP] (H-ETYIKWP-OH) | > 260000 nM | > 260000 nM | > 260000 nM | EC50 for inhibition of stimulation of GTPγS binding by formyl-Nle–Leu–Phe (W190/N192 FPR [4]): had no effect
CC[C@H](C)[C@H](NC(=O)[C@H](CC(N)=O)NC(=O)[C@H](C)NC(=O)[C@H](CCC(=O)O)NC(=O)[C@H](CC(C)C)NC(=O)[C@@H](N)Cc1ccc(O)cc1)C(=O)N[C@@H](CO)C(=O)N[C@@H](CCC(=O)O)C(=O)N[C@@H](CC(C)C)C(=O)N[C@@H](CC(C)C)C(=O)N[C@@H](CCC(=O)O)C(=O)N[C@@H](CCC(N)=O)C(=O)N[C@@H](C)C(=O)N[C@@H](CCC(N)=O)C(=O)N[C@H](C(=O)N[C@@H](CCC(N)=O)C(=O)N[C@@H](CCC(N)=O)C(=O)N[C@@H](CCC(=O)O)C(=O)N[C@@H](CCCCN)C(=O)N[C@@H](CC(N)=O)C(=O)N[C@@H](CCSC)C(=O)N[C@@H](Cc1ccc(O)cc1)C(=O)N[C@@H](CCC(=O)O)C(=O)N[C@@H](CC(C)C)C(=O)N[C@@H](CCC(N)=O)C(=O)N[C@@H](CCCCN)C(=O)N[C@@H](CC(C)C)C(=O)N[C@@H](CC(N)=O)C(=O)N[C@@H](CO)C(=O)N[C@@H](Cc1c[nH]c2ccccc12)C(=O)N[C@@H](CC(=O)O)C(=O)N[C@H](C(=O)N[C@@H](Cc1ccccc1)C(=O)NCC(=O)N[C@@H](CC(N)=O)C(=O)N[C@@H](Cc1c[nH]c2ccccc12)C(=O)N[C@@H](Cc1ccccc1)C(=O)O)C(C)C)[C@@H](C)CC [HIV-2 37 mer] | 15700 nM | 4000 ± 1000 nM | 10000 nM | –
CSCC[C@H](NC(=O)[C@@H](N)CCSC)C(=O)N[C@@H](Cc1c[nH]c2ccccc12)C(=O)N[C@@H](CC(C)C)C(=O)N[C@@H](CC(C)C)C(=O)O [MMWLL, reference compound] (H-MMWLL-OH) | 330 ± 50 nM | 840 ± 200 nM | 190 ± 30 nM | fold higher affinity for R190/K192 than for W190/N192 (R190/K192 FPR [3]): ~3 fold
CC(C)C[C@H](NC(=O)[C@H](Cc1c[nH]c2ccccc12)NC(=O)[C@@H](NC(=O)[C@H](Cc1c[nH]c2ccccc12)NC(=O)[C@H](Cc1c[nH]c2ccccc12)NC(=O)[C@@H]1CCCN1C(=O)[C@@H](N)Cc1c[nH]c2ccccc12)C(C)C)C(=O)O [WPWWVWL] (H-WPWWVWL-OH) | ~600 nM | ~600 nM | ~600 nM | –
CC(C)C[C@H](NC(=O)[C@H](Cc1c[nH]c2ccccc12)NC(=O)[C@@H](NC(=O)[C@H](Cc1c[nH]c2ccccc12)NC(=O)[C@@H](N)Cc1c[nH]c2ccccc12)C(C)C)C(=O)O [WWVWL] (H-WWVWL-OH) | ~1000 nM | ~600 nM | ~1400 nM | EC50 (W190/N192 FPR [4]): 1300 nM
Formyl peptide receptor (FPR R190/K192), P21462 (protein) METNSSLPTNISGGTPAVSAGYLFLDIITYLVFAVTFVLGVLGNGLVIWVAGFRMTHTVTTISYLNLAVADFCFTSTLPFFMVRKAMGGHWPFGWFLCKFVFTIVDINLFGSVFLIALIALDRCVCVLHPVWTQNHRTVSLAKKVIIGPWVMALLLTLPVIIRVTTVPGKTGTVACTFNFSPWTNDPKERIKVAVAMLTVRGIIRFIIGFSAPMSIVAVSYGLIATKIHKQGLIKSSRPLRVLSFVAAAFFLCWSPYQVVALIATVRIRELLQGMYKEIGIAVDVTSALAFFNSCLNPMLYVFMGQDFRERLIHALPASLERALTEDSTQTSDTATNSTLPSAEVELQAK | – | – | – | Ki (MMWLL): 190 nM; Ki (reverse 229E peptide): > 50000 nM
Formyl peptide receptor (FPR W190/N192), P21462 (protein) METNSSLPTNISGGTPAVSAGYLFLDIITYLVFAVTFVLGVLGNGLVIWVAGFRMTHTVTTISYLNLAVADFCFTSTLPFFMVRKAMGGHWPFGWFLCKFVFTIVDINLFGSVFLIALIALDRCVCVLHPVWTQNHRTVSLAKKVIIGPWVMALLLTLPVIIRVTTVPGKTGTVACTFNFSPWTNDPKEWINVAVAMLTVRGIIRFIIGFSAPMSIVAVSYGLIATKIHKQGLIKSSRPLRVLSFVAAAFFLCWSPYQVVALIATVRIRELLQGMYKEIGIAVDVTSALAFFNSCLNPMLYVFMGQDFRERLIHALPASLERALTEDSTQTSDTATNSTLPSAEVELQAK | – | – | – | Ki (MMWLL): 840 nM; Ki (reverse 229E peptide): > 50000 nM
